Eight molecules from ChEMBL document CHEMBL1201862, “PubChem BioAssay data set” (2004) can be followed below.

As a reminder, the AC50 is the concentration giving half of the maximal activity seen.

The subject of one assay is CHO. The assay is described as follows: CHO cell viability loss, potency – luminescence, cytotoxicity control for TLR9-MyD88 binding inhibitor project, dose response (AID 588339).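 Note: CHO cells stably coexpressing TLR9 and MyD88 fusions from primary screen; compound exposure lasted 48 hours before viability readout.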 The assay is classed as functional, cell-based, hamster. Conditions: Cricetulus griseus.
Assay [1] has as its target T1, High affinity choline transporter 1 (Homo sapiens, UniProt Q9GZV3).
T1 sequence (Q9GZV3 whole entry): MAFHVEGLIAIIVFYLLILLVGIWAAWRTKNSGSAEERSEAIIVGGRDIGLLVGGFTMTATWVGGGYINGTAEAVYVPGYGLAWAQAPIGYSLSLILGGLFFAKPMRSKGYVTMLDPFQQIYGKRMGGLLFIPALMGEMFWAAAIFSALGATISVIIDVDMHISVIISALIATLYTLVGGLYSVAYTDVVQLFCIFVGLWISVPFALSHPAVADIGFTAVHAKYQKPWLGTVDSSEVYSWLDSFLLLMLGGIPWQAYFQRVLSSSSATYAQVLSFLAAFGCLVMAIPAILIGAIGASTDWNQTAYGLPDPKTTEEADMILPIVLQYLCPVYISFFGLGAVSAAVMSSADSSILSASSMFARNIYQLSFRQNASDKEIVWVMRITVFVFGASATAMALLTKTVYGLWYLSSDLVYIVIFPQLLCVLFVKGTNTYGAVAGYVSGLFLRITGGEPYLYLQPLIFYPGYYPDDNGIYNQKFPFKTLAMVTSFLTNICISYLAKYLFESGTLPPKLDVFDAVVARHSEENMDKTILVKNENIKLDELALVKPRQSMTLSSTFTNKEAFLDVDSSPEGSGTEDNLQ
In words: human choline transporter blockers, potency – cell-based, 5-point CRC, membrane potential dye, dose response (AID 504840). The assay is classed as functional.

A further assay addresses Beta Lactamase (Pseudomonas aeruginosa, UniProt Q932Y6). The assay is described as follows: BLA reporter interference, concentration series – BLA reporter cells, FRET fluorescence, artefact control for TLR9-MyD88 binding inhibitor project, dose response (AID 588341).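 Note: cell based assay in CHO-K1 cells stably expressing beta-lactamase.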 The assay is classed as cell-based.
The target of assay [2] is T1, High affinity choline transporter 1. The assay is described as follows: human choline transporter blockers, potency – cell-based, 10-point CRC, membrane potential dye, dose response (AID 588401).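 Note: membrane potential dye fluorescence of choline-evoked depolarization via CHT.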 The assay is classed as functional.
Assay [3] can be described thus: reduction of Shn3 3'UTR-driven luciferase in osteoblasts – cell-based, Clone20 osteoblasts, firefly luciferase, cherry-picked, dose response (AID 624132).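 Note: firefly luciferase luminescence from reporter carrying the Shn3 3'UTR in osteoblasts.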 The assay is classed as functional.
Assay [4] in a line: loss of viability in HepG2 cells – cell-based, CellTiter-Glo, cherry-picked, cytotoxicity control for Shn3 inhibitor project, dose response (AID 624134). The assay is classed as functional.
The nature of assay [5]: non-specific 3'UTR reporter inhibition in Clone20-Shn3RL – cell-based, Renilla luciferase, cherry-picked, counter-screen for Shn3 inhibitor project, dose response (AID 624133). The assay is classed as functional.
The target in assay [6] is Nuclear receptor subfamily 5 group A member 2 (Homo sapiens, UniProt O00482). The assay is classed as functional, cell-based.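 Note: HEK293T cells transfected with LRH-1 and a StAR promoter luciferase reporter; potency for inhibitors that lower LRH-1 driven reporter light.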
The target in a further assay is Steroidogenic factor 1 (Homo sapiens, UniProt Q13285). The assay is described as follows: Counterscreen for inverse agonists of the liver receptor homolog-1 (LRH-1; NR5A2): Luminescence-based cell-based high throughput dose response assay to identify inverse agonists of the Steroidogenic Factor 1 Nuclear Receptor (SF1; NR5A1). Type of assay: functional. A general note: A counterscreen serves to expose hits that act by an unwanted route or on another target.

A short description of assay [7]: nonselective StAR promoter luciferase inhibitors – cell-based, luminescence, luciferase reporter, counter-screen for LRH-1 inverse agonist project, dose response (AID 651969). The assay is classed as functional.
For assay [8], the target named is T1, High affinity choline transporter 1. In words: human choline transporter radiolabel uptake blockers – cell-based, 3H-choline uptake, CHT LV-AA trafficking mutant, CRC, dose response (AID 602208). The assay is classed as functional.
Assay [9] concerns the target T2, Apoptotic protease-activating factor 1 (Homo sapiens, UniProt O14727).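 Note: caspase-3 cleavage of fluorogenic Rh110 DEVD substrate downstream of apoptosome activation.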
T2 sequence (O14727 whole entry): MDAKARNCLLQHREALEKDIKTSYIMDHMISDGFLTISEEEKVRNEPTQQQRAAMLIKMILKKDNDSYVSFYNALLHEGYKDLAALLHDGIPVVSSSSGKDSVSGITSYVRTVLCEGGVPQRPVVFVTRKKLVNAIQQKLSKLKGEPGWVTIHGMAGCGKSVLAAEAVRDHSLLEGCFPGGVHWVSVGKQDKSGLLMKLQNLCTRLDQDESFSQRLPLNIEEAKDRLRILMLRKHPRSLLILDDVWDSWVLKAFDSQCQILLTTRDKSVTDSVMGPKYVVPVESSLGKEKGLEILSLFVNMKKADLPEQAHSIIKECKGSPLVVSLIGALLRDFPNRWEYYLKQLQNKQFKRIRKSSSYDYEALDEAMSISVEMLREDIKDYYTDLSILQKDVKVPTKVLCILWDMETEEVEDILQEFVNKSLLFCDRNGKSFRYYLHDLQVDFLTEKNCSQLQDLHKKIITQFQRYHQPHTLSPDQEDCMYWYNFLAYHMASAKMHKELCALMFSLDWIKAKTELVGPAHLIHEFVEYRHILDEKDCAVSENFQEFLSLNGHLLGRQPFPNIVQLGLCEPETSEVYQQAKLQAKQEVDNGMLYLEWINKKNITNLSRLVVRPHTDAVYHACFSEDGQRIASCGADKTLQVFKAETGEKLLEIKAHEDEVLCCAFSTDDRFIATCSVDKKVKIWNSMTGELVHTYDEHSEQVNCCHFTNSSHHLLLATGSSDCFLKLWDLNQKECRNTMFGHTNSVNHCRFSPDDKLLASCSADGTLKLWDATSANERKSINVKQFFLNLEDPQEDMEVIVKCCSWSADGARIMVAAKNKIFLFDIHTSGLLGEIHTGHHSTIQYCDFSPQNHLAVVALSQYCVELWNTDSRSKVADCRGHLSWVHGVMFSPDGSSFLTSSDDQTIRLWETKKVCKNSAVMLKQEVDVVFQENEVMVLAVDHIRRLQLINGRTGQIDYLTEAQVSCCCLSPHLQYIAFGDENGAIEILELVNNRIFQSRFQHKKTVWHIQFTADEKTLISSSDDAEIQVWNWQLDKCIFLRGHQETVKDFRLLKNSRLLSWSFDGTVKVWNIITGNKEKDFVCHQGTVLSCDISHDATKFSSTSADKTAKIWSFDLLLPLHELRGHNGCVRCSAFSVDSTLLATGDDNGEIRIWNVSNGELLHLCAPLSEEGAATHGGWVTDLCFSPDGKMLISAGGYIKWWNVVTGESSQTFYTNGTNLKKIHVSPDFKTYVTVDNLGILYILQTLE
In words: SAR analysis of small molecule Activators of Apaf-1 in a Fluorescent assay. Type of assay: functional. Conditions: read-out: EC50_Mean.

For assay [10], the target named is T3, ATP-dependent translocase ABCB1 (Homo sapiens, UniProt P08183). In words: inhibition of BCRP-mediated JC-1 efflux – Ig-MXP3 cells, flow cytometry, set 2, dose response (AID 504566).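 Note: flow cytometry median green fluorescence of retained JC-1 dye; potency of efflux pump inhibition measured as rising substrate retention.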 The assay is classed as functional. Conditions: read-out: EC50_MICROM_.
In assay [11] the target is T3, ATP-dependent translocase ABCB1. The assay is described as follows: P-gp JC-1 efflux blockade concentration-response – Jurkat-DNR cells, flow cytometry, set 2, dose response (AID 504569).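 Note: potency of pump inhibitors that raise cellular JC-1 green fluorescence up to the nicardipine level.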 Type of assay: functional. Conditions: read-out: EC50_MICROM_. (In flow cytometry, cells or beads pass a laser one at a time.)
Assay [12] deals with T4, Low molecular weight phosphotyrosine protein phosphatase (Homo sapiens, UniProt P24666).
T4 sequence (P24666 whole entry): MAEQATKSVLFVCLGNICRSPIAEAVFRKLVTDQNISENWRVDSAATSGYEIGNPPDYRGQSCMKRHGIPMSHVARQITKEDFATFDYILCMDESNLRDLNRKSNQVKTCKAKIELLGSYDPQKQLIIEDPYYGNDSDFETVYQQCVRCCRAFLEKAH
The assay is classed as functional. Conditions: read-out: IC50_Mean.

Assay [13] concerns the target ADP-ribosylation factor GTPase-activating protein 1 (Rattus norvegicus, UniProt Q62848). In words: Fluorescence polarization-based biochemical high throughput dose response screening assay to identify inhibitors of ADP-ribosylation factor GTPase activating protein 1 (ARFGAP1). The assay is classed as functional. For orientation: Fluorescence polarisation rises when a labelled molecule tumbles more slowly, as on binding a larger partner.

Assay [14] concerns the target DNA (cytosine-5)-methyltransferase 1 (Homo sapiens, UniProt P26358). In words: inhibition of DNA methylation by DNMT1 – biochemical, fluorescent molecular beacon, confirmation (AID 602386). Type of assay: functional.
The nature of assay [15]: cytotoxicity toward MDA-MB-231 breast cancer cells – cell-based, CellTiter-Glo luminescence, cherry-pick, cytotoxicity control for RAD54 inhibitor project, dose response (AID 651692). The assay is classed as functional.
Assay [16] in a line: acridine orange displacement from DNA – biochemical, fluorescence polarization, cherry-pick, artefact control for RAD54 inhibitor project, dose response (AID 651673). The assay is classed as functional.
Assay [17] addresses T5, DNA repair and recombination protein RAD54-like (Homo sapiens, UniProt Q92698).
T5 sequence (Q92698 whole entry): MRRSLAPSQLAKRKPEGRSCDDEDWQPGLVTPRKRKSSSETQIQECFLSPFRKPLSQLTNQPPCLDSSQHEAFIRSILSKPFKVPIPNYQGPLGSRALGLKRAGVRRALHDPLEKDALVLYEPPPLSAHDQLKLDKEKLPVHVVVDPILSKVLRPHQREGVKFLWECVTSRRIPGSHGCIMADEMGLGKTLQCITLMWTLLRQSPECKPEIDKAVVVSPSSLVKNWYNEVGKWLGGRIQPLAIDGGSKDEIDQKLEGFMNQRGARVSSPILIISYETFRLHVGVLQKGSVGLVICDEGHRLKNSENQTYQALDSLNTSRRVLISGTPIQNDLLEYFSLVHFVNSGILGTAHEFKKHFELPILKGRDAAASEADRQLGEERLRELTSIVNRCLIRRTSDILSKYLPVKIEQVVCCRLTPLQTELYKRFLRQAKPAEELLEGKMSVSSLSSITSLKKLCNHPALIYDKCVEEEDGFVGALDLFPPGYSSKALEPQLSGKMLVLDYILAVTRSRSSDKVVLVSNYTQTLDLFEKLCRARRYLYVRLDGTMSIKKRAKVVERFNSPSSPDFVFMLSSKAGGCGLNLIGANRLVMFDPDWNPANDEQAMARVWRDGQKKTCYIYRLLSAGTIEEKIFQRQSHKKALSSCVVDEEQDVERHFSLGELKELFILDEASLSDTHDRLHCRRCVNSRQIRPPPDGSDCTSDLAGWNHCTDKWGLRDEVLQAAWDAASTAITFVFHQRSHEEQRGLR
In words: RAD54 Holliday junction migration blockers – biochemical, fluorescence, cherry-picked samples, dose series, confirmation (AID 651657). The assay is classed as functional.

Assay [18] addresses SWI/SNF-related matrix-associated actin-dependent regulator of chromatin subfamily A member 2 (Homo sapiens, UniProt P51531). The assay is described as follows: Luminescence-based cell-based high throughput dose response assay to identify activators of the function of SWI/SNF related, matrix associated, actin dependent regulator of chromatin, subfamily a, member 2 (SMARCA2, BRM). Type of assay: functional.

A short description of assay [19]: Counterscreen for activators of the function of SWI/SNF related, matrix associated, actin dependent regulator of chromatin, subfamily a, member 2 (SMARCA2, BRM): Luminescence-based cell-based high throughput dose response assay to identify non-selective compounds using the VP16 reporter assay. Type of assay: functional.
Assay [20] addresses T6, DNA repair protein RAD52 homolog (Homo sapiens, UniProt P43351).
T6 sequence (P43351 whole entry): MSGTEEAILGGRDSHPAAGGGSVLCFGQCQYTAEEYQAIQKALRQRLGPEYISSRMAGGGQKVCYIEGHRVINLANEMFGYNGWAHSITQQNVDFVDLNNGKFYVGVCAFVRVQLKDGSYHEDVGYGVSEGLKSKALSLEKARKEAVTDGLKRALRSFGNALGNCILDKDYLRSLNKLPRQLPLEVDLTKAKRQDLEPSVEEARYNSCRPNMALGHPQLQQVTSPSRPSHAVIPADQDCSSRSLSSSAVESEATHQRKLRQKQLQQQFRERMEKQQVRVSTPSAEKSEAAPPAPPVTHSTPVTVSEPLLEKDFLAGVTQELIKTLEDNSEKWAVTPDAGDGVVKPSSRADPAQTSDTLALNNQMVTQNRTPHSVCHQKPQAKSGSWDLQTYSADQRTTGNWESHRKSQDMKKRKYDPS
The assay is classed as functional, biochemical.

Active and inactive are the calls of the source.
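Throughout, for IC50 Mean: Dose-response confirmation assay measuring inhibition of LMPTP enzyme activity by fluorescence intensity read-out.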

T3 sequence (P08183 whole entry): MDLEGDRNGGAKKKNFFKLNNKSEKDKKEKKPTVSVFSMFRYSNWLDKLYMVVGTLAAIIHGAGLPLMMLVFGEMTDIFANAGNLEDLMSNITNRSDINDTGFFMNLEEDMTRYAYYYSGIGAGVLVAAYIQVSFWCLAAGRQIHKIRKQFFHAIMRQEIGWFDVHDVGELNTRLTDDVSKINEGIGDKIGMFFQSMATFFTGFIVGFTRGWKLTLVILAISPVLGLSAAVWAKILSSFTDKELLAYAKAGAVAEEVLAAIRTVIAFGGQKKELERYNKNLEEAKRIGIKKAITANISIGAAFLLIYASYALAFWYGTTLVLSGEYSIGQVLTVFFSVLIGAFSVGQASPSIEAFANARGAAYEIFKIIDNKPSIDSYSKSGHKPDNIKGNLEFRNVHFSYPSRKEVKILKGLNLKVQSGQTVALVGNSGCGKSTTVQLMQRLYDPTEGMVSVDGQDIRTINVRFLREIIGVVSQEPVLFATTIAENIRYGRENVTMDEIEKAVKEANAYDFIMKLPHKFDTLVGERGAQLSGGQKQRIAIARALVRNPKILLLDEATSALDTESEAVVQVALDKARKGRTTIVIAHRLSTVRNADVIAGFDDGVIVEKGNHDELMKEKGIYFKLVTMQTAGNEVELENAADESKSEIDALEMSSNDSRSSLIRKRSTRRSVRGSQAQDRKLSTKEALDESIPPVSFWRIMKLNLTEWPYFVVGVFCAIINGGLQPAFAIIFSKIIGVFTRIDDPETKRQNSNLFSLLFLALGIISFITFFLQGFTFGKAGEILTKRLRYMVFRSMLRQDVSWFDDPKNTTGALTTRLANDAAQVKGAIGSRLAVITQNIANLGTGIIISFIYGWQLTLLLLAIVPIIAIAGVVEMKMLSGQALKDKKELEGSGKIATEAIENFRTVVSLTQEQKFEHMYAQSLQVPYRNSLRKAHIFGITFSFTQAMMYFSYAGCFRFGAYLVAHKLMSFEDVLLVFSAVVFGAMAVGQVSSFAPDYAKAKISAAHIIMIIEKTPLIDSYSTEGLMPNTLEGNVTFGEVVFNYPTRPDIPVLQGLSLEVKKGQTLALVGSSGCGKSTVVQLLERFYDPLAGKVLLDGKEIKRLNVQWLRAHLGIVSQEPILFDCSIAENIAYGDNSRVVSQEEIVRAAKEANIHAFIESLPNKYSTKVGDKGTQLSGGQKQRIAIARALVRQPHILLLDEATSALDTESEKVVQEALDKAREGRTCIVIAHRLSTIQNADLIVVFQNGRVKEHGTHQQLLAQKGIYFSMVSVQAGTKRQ
Chain of Steroidogenic factor 1 (Q13285 whole entry): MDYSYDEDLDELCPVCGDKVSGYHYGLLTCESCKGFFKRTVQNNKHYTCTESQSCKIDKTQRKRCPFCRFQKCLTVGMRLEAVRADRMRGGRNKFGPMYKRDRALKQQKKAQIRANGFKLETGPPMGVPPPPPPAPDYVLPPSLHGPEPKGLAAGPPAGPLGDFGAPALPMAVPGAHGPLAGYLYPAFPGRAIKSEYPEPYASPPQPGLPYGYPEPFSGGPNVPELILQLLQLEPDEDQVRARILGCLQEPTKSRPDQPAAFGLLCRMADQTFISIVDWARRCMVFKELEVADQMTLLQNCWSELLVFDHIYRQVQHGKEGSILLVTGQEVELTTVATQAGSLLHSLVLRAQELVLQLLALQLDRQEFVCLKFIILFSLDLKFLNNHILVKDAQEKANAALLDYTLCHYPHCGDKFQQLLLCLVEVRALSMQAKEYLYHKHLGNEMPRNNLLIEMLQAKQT
Chain of ADP-ribosylation factor GTPase-activating protein 1 (Q62848 whole entry): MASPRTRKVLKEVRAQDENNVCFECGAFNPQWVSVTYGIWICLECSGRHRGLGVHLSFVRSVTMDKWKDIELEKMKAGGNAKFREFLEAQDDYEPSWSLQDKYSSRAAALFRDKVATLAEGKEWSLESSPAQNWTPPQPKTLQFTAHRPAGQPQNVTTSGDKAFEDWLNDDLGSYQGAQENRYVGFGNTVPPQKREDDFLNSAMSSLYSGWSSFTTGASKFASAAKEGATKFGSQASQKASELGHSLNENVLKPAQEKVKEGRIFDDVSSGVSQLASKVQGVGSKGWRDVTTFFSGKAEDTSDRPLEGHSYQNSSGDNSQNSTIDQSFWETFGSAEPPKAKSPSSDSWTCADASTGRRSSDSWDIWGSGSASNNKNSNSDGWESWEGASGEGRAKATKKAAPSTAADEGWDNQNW
Chain of DNA (cytosine-5)-methyltransferase 1 (P26358 whole entry): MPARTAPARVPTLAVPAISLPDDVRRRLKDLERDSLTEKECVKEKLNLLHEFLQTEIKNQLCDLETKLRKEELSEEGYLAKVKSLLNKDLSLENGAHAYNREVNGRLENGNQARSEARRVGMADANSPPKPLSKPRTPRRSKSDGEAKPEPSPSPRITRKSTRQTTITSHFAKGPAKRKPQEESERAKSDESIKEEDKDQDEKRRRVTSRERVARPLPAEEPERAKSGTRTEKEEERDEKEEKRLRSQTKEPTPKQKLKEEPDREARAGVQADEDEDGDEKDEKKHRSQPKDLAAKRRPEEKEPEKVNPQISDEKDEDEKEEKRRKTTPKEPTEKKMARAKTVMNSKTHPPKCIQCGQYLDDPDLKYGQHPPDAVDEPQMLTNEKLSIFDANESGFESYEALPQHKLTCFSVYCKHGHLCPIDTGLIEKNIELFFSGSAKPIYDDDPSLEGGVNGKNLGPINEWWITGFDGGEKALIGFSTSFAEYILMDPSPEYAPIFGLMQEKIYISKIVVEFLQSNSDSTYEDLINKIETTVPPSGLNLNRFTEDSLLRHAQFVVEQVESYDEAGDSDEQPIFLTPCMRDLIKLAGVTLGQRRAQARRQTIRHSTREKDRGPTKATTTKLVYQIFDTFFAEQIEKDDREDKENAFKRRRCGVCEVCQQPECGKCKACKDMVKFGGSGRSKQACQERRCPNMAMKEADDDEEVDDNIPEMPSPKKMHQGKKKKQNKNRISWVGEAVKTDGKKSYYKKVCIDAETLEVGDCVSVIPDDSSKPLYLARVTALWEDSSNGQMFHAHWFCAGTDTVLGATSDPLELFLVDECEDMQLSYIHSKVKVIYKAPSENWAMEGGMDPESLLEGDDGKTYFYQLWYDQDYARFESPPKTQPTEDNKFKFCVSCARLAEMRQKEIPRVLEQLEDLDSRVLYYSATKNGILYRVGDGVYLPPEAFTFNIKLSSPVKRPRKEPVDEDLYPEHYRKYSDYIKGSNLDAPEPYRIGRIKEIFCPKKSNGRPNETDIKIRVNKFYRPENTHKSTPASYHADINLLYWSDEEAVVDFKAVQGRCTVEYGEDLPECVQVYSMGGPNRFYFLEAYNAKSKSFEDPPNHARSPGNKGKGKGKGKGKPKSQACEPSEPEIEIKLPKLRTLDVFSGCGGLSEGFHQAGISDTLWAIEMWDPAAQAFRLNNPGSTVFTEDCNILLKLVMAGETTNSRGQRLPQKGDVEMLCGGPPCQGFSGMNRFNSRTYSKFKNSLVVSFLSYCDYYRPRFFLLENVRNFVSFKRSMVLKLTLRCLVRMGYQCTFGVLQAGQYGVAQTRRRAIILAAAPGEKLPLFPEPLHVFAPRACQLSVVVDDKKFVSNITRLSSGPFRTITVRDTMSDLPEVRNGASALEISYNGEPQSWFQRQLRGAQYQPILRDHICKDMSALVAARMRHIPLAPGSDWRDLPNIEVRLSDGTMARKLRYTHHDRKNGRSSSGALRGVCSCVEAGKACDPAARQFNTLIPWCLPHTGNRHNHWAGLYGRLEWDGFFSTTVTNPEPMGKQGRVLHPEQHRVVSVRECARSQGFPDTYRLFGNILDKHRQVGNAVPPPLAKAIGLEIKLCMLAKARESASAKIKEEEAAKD
Chain of Beta Lactamase (Q932Y6 whole entry): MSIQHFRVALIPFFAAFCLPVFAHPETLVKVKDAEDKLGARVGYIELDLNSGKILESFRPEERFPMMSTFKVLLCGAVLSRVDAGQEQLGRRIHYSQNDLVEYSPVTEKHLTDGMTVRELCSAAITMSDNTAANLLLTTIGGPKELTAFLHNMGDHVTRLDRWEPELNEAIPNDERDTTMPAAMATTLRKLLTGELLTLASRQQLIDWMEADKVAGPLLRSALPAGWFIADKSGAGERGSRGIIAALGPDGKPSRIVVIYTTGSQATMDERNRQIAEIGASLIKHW
Chain of Nuclear receptor subfamily 5 group A member 2 (O00482 whole entry): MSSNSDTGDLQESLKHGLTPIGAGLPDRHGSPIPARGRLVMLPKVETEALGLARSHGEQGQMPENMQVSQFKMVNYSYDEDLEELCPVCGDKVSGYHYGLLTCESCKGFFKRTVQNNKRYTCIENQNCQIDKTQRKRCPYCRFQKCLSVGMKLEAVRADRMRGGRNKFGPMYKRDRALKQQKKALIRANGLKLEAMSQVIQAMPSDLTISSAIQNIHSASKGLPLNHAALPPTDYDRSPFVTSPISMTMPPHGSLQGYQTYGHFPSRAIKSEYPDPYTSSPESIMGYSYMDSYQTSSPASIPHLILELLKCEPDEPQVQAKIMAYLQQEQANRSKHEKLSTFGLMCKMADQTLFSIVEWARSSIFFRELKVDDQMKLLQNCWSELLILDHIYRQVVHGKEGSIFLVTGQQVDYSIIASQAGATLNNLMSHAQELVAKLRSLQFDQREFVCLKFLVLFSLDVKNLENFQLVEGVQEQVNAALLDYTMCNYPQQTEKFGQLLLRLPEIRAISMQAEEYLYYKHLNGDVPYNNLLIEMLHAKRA

Take `O=c1oc2ccccc2c(Cl)c1CN1CCCCC1`: the IC50 in the assay on CHO is 1.22 µM (active); in [1], 10 µM (active); on Beta Lactamase, 6.02 µM (active); in assay [2] it was 6.69 µM (active). Further, the AC50 was 4.99 µM (active) in assay [3], > 70 µM (inactive) in [4] and 7.15 µM (active) in [5].

Turning to `CCCc1cc(=O)oc2c(C)c(OCC(=O)NCCCn3ccnc3)ccc12`, the figures for the IC50 (in assay [6]; on Steroidogenic factor 1; in assay [7]) were 35.9 µM (inactive), 10.8 µM (inactive) and 35.9 µM (inactive), respectively.

As to `O=C(Nc1ccc(S(=O)(=O)Nc2cnc3ccccc3n2)cc1)c1ccc(Cl)cc1Cl`, the results for the IC50 in assay [1], in assay [2] and in [8] were 9.55 µM (active), 3.25 µM (active) and 2.82 µM (active), respectively.

For `CCC(=O)N1CCc2cc(Br)c(S(=O)(=O)CCC(=O)Nc3cc(Cl)ccc3OC)cc21`, in assay [9], the EC50 is > 100 µM (inactive).

In the case of `COc1cccc(C(=O)N2CCN(c3cc(-c4ccccc4)nc4cc(-c5cccc(Cl)c5)nn34)CC2)c1`, the EC50 in assay [10] was 2.6 µM (active); in assay [11], 2.22 µM (active).

As for `C/C(=N\NS(=O)(=O)c1ccc(Cl)c([N+](=O)[O-])c1)c1ccc(C)o1`, the IC50 in [12] is 80 µM (inactive).

For the molecule `CCCOc1ccc(/C=N/NC(=O)c2ccc(Cn3cc([N+](=O)[O-])cn3)o2)cc1`, the IC50 in [13] is 49 µM (inactive).

Consider `COc1ccc2nc(C)cc(Nc3ccc(N4CCN(C)CC4)cc3)c2c1`, for which, in [14], the IC50 is 11.4 µM (active). The AC50 in assay [15] was 52 µM (inactive); in [16], 62 µM (active); in [17], 2.45 µM (active); in assay [20], 1.27 µM (active). Also, the values for the EC50 in assay [18] and in assay [19] were > 3.38 µM (active) and > 10.1 µM (inactive), respectively.
